Read-outs that look alike come from different tables or passages of the source.
What was measured:
[1] = target: mGluR4 (UniProt Q14833); experiment: mGluR4 potentiation assay (Ca2+ or thallium flux fluorescence, agonist EC20); assay type: cell-based, human or rat
Protocol: The disclosed compounds and compositions can be evaluated for their ability to act as a potentiator of metabotropic glutamate receptor activity, in particular mGluR4 activity, by any suitable known methodology known in the art. For example, Chinese Hamster Ovary (CHO) cells transfected with human mGluR4 or HEK cells co-transfected with rat mGluR4 and the G-protein regulated Inwardly Rectifying Potassium channel (GIRK) were plated in clear bottom assay plates for assay in a Hamamatsu FDSS Fluorometric Plate Reader. The cells were loaded with either a Ca2+-sensitive fluorescent dye or the thallium responsive dye and the plates were washed and placed into a suitable kinetic plate reader. For human mGluR4 assays, a fluorescence baseline was established for 3-5 seconds, the disclosed compounds were then added to the cells, and the response in cells was measured. Approximately two and a half minutes later, a concentration of mGluR4 orthosteric agonist (e.g. glutamate or L-AP4) eliciting approximately 20% (EC20) of the maximal agonist response was added to the cells, and the response was measured. Two minutes later, a concentration of mGluR4 agonist (e.g. glutamate or L-AP4) eliciting 80% (EC80) of the maximal agonist response was added to the cells, and the response was measured. For rat mGluR4/GIRK experiments, a baseline was established for approximately five seconds, disclosed compounds were added, and either an EC20 or EC80 concentration of agonist was added approximately two and one half minutes later.
The above described assay operated in two modes. In the first mode, a range of concentrations of the disclosed compounds are added to cells, followed by a single fixed concentration of agonist. If the compound acts as a potentiator, an EC50 value for potentiation and a maximum extent of potentiation by the compound at this concentration of agonist is determined by non-linear curve fitting. If the compound acts as a noncompetitive antagonist, an IC50 value is determined by non-linear curve fitting. In the second mode, several fixed concentrations of the disclosed compounds are added to various wells on a plate, followed by a range in concentrations of agonist for each concentration of disclosed compound. The EC50 values for the agonist at each concentration of compound are determined by non-linear curve fitting. A decrease in the EC50 value of the agonist with increasing concentrations of the sample compound (a leftward shift of the agonist concentration-response curve) is an indication of the degree of mGluR4 potentiation at a given concentration of the sample compound. A decrease in the maximal response of the agonist with increasing concentrations of the sample compounds, with or without a rightward shift in agonist potency, is an indication of the degree of noncompetitive antagonism at mGluR4. The second mode also indicates whether the sample compounds also affect the maximum response to mGluR4 to agonists.

[2] = target: T1, mGluR5 (Rattus norvegicus, UniProt P31424); experiment: mGluR5 negative allosteric modulation, decrease in response to non-maximal glutamate in HEK cells; assay type: cell-based; conditions: Table 3; read-out: mGlu5 IC50
T1 construct: expressed in transfected cells; host or cells: human embryonic kidney (HEK) cells
T1 sequence (P31424 21-1203): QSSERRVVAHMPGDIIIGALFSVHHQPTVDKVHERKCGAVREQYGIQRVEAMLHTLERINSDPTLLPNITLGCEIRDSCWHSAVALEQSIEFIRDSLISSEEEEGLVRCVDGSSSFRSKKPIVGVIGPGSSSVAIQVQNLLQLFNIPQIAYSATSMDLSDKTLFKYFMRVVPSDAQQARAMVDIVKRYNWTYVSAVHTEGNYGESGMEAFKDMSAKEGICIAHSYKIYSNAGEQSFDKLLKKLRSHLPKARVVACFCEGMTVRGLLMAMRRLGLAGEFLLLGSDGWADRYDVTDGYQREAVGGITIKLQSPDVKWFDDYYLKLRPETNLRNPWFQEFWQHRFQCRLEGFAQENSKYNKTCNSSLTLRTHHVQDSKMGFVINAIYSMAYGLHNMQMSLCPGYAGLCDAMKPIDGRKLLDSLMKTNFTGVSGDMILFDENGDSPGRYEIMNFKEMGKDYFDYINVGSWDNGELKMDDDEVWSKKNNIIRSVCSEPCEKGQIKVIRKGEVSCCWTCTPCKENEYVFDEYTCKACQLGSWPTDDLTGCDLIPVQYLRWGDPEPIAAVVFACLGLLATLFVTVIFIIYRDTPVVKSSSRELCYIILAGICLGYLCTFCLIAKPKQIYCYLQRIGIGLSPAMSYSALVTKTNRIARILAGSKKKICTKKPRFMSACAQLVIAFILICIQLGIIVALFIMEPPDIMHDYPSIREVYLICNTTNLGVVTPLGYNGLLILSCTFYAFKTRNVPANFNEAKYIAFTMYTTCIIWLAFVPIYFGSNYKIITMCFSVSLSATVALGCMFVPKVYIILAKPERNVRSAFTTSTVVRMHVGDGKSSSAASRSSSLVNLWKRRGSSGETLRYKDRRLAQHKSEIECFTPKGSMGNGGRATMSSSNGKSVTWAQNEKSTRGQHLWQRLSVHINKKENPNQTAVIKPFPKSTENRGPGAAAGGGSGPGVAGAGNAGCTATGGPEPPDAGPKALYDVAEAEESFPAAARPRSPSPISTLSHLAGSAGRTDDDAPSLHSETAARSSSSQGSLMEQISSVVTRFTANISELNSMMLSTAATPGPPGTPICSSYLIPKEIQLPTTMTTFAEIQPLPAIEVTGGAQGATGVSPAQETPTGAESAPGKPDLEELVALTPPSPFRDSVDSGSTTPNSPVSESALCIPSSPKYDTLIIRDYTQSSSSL
Excerpt: Embodiments of the present invention are also mGluR5 negative allosteric modulators. Accordingly, in one aspect, the invention relates to compounds that are also useful as negative allosteric modulators of the metabotropic glutamate receptor subtype 5 (mGluR5). Negative allosteric modulators are non-competitive antagonists and can include a range of maximal antagonist activity from partial antagonists to inverse agonists. In one aspect, the present invention relates to compounds that allosterically modulate mGluR5 receptor activity, affecting the sensitivity of mGluR5 receptors to agonists without acting as orthosteric agonists themselves. […] The compounds of the invention can be useful in the treatment neurological and psychiatric disorders associated with glutamate dysfunction and other diseases in which metabotropic glutamate receptors are involved, as further described herein. […] In further aspect, the human embryonic kidney cells are transfected with human mGluR5. In yet a further aspect, human embryonic kidney cells are transfected with mGluR5 of a mammal.
In further aspect, the human embryonic kidney cells are transfected with human mGluR5. In yet a further aspect, human embryonic kidney cells are transfected with mGluR5 of a mammal.

[3] = Table 2, potentiation of mGluR4 agonist response, read-out: EC50

Row | SMILES | EC50 [1, 3] [nM] | EC50 ([1]; Table 3, read-out: mGlu4 EC50) [nM] | IC50 [2] [nM]
1 | FC(F)(F)c1ccnc(Oc2ccc(Nc3n[nH]c4cccnc34)cc2Cl)c1 [Example 97, N-(3-chloro-4-((4-(trifluoromethyl)pyridin-2-yl)oxy)phenyl)-1H-pyrazolo[4,3-b]pyridin-3-amine] | 497 | – | –
2 | Fc1cccnc1Oc1ccc(Nc2n[nH]c3cccnc23)cc1Cl [Example 98, N-(3-chloro-4-((3-fluoropyridin-2-yl)oxy)phenyl)-1H-pyrazolo[4,3-b]pyridin-3-amine] | 635 | – | –
3 | Fc1ccccc1COc1ccc(Nc2n[nH]c3cccnc23)cc1Cl [Example 99] | 180 | – | –
4 | CC(Oc1ccc(Nc2n[nH]c3cccnc23)cc1Cl)c1ccccc1 (centres unmarked) [Example 100, N-(3-chloro-4-(1-phenylethoxy)phenyl)-1H-pyrazolo[4,3-b]pyridin-3-amine] | 1600 | – | –
5 | Clc1cc(Nc2n[nH]c3cccnc23)ccc1OCc1ccncc1 [Example 101, N-(3-chloro-4-(pyridin-4-ylmethoxy)phenyl)-1H-pyrazolo[4,3-b]pyridin-3-amine] | 270 | – | –
6 | Clc1cc(Nc2n[nH]c3cccnc23)ccc1OCc1cccnc1 [Example 102, N-(3-chloro-4-(pyridin-3-ylmethoxy)phenyl)-1H-pyrazolo[4,3-b]pyridin-3-amine] | 400 | – | –
7 | Clc1cc(Nc2n[nH]c3cccnc23)ccc1OCc1nccs1 [Example 103, N-(3-chloro-4-(thiazol-2-ylmethoxy)phenyl)-1H-pyrazolo[4,3-b]pyridin-3-amine] | 360 | – | –
8 | Clc1ccccc1COc1ccc(Nc2n[nH]c3cccnc23)cc1Cl [Example 104] | 1500 | – | –
9 | Clc1cc(Nc2n[nH]c3cccnc23)ccc1OCC1CCCC1 [Example 105, N-(3-chloro-4-(cyclopentylmethoxy)phenyl)-1H-pyrazolo[4,3-b]pyridin-3-amine] | 400 | – | –
10 | Clc1cc(Nc2n[nH]c3cccnc23)ccc1OC1CCCCC1 [Example 106, N-(3-chloro-4-(cyclohexyloxy)phenyl)-1H-pyrazolo[4,3-b]pyridin-3-amine] | 470 | – | –
11 | C[C@H](Oc1ccc(Nc2n[nH]c3cccnc23)cc1Cl)c1ccccn1 [Example 107, (S)-N-(3-chloro-4-(1-(pyridin-2-yl)ethoxy)phenyl)-1H-pyrazolo[4,3-b]pyridin-3-amine] | 610 | – | –
12 | Clc1cc(Nc2n[nH]c3cccnc23)ccc1OCc1ncccn1 [Example 108, N-(3-chloro-4-(pyrimidin-2-ylmethoxy)phenyl)-1H-pyrazolo[4,3-b]pyridin-3-amine] | 1190 | – | –
13 | Clc1cc(Nc2n[nH]c3cccnc23)ccc1OC1CCCc2cccnc21 (centres unmarked) [Example 109, N-(3-chloro-4-((5,6,7,8-tetrahydroquinolin-8-yl)oxy)phenyl)-1H-pyrazolo[4,3-b]pyridin-3-amine] | 1000 | – | –
14 | C[C@H](Oc1ccc(Nc2n[nH]c3cccnc23)cc1Cl)c1ccncc1 [Example 110, (S)-N-(3-chloro-4-(1-(pyridin-4-yl)ethoxy)phenyl)-1H-pyrazolo[4,3-b]pyridin-3-amine] | 1230 | – | –
15 | N#Cc1cncc(Oc2ccc(Nc3n[nH]c4cccnc34)cc2Cl)c1 [Example 111, 5-(4-((1H-pyrazolo[4,3-b]pyridin-3-yl)amino)-2-chlorophenoxy)nicotinonitrile] | 84.8 | – | –
16 | Fc1cncc(Oc2ccc(Nc3n[nH]c4cccnc34)cc2Cl)c1 [Example 112, N-(3-chloro-4-((5-fluoropyridin-3-yl)oxy)phenyl)-1H-pyrazolo[4,3-b]pyridin-3-amine] | 611 | – | –

Row | SMILES | EC50 [1, 3] [nM] | EC50 ([1]; Table 3, read-out: mGlu4 EC50) [nM] | IC50 [2] [nM]
17 | Cc1cc(Nc2n[nH]c3cccnc23)ccc1Oc1ncccn1 [Example 113, N-(3-methyl-4-(pyrimidin-2-yloxy)phenyl)-1H-pyrazolo[4,3-b]pyridin-3-amine] | 265 | – | –
18 | Clc1cc(Nc2n[nH]c3cccnc23)ccc1Nc1ccccn1 [Example 114, 2-chloro-N4-(1H-pyrazolo[4,3-b]pyridin-3-yl)-N1-(pyridin-2-yl)benzene-1,4-diamine] | – | 33.5 | 582
19 | Clc1cc(Nc2n[nH]c3cccnc23)ccc1Nc1cc2ccccc2cn1 [Example 115, 2-chloro-N1-(isoquinolin-3-yl)-N4-(1H-pyrazolo[4,3-b]pyridin-3-yl)benzene-1,4-diamine] | – | 37.2 | –
20 | Clc1cccc(Nc2ccc(Nc3n[nH]c4cccnc34)cc2Cl)n1 [Example 116, 2-chloro-N1-(6-chloropyridin-2-yl)-N4-(1H-pyrazolo[4,3-b]pyridin-3-yl)benzene-1,4-diamine] | – | 82.5 | 2430
21 | Clc1cc(Nc2n[nH]c3cccnc23)ccc1Nc1cnccn1 [Example 117, 2-chloro-N1-(pyrazin-2-yl)-N4-(1H-pyrazolo[4,3-b]pyridin-3-yl)benzene-1,4-diamine] | – | 30.6 | 100
22 | Clc1cc(Nc2n[nH]c3cccnc23)ccc1Nc1ncccn1 [Example 118, 2-chloro-N4-(1H-pyrazolo[4,3-b]pyridin-3-yl)-N1-(pyrimidin-2-yl)benzene-1,4-diamine] | – | 43.9 | 3600
23 | Cc1ccc(Nc2ccc(Nc3n[nH]c4cccnc34)cc2Cl)nc1 [Example 119, 2-chloro-N1-(5-methylpyridin-2-yl)-N4-(1H-pyrazolo[4,3-b]pyridin-3-yl)benzene-1,4-diamine] | – | 16.9 | 590
24 | Cc1cccc(Nc2ccc(Nc3n[nH]c4cccnc34)cc2Cl)n1 [Example 120, 2-chloro-N1-(6-methylpyridin-2-yl)-N4-(1H-pyrazolo[4,3-b]pyridin-3-yl)benzene-1,4-diamine] | – | 31.5 | 550
25 | FC(F)(F)c1ccnc(Nc2ccc(Nc3n[nH]c4cccnc34)cc2Cl)c1 [Example 121, 2-chloro-N4-(1H-pyrazolo[4,3-b]pyridin-3-yl)-N1-(4-(trifluoromethyl)pyridin-2-yl)benzene-1,4-diamine] | – | 56.9 | –
26 | Clc1cc(Nc2n[nH]c3cccnc23)ccc1Nc1cnc2ccccc2c1 [Example 122, 2-chloro-N4-(1H-pyrazolo[4,3-b]pyridin-3-yl)-N1-(quinolin-3-yl)benzene-1,4-diamine] | – | 162 | –
27 | COc1ccnc(Nc2ccc(Nc3n[nH]c4cccnc34)cc2Cl)n1 [Example 123, 2-chloro-N1-(4-methoxypyrimidin-2-yl)-N4-(1H-pyrazolo[4,3-b]pyridin-3-yl)benzene-1,4-diamine] | – | 25.5 | 670
28 | FC(F)(F)c1cccnc1Nc1ccc(Nc2n[nH]c3cccnc23)cc1Cl [Example 124, 2-chloro-N4-(1H-pyrazolo[4,3-b]pyridin-3-yl)-N1-(3-(trifluoromethyl)pyridin-2-yl)benzene-1,4-diamine] | – | 1560 | 1540
29 | Clc1cc(Nc2n[nH]c3cccnc23)ccc1Nc1ncc2ccccc2n1 [Example 125, 2-chloro-N4-(1H-pyrazolo[4,3-b]pyridin-3-yl)-N1-(quinazolin-2-yl)benzene-1,4-diamine] | – | 21.6 | –
30 | Clc1cc(Nc2n[nH]c3cccnc23)ccc1Nc1cnc2ccccc2n1 [Example 126, 2-chloro-N4-(1H-pyrazolo[4,3-b]pyridin-3-yl)-N1-(quinoxalin-2-yl)benzene-1,4-diamine] | – | 38 | 3700
31 | Clc1cc(Nc2n[nH]c3cccnc23)ccc1Nc1nccc2cccnc12 [Example 128, 2-chloro-N1-(1,7-naphthyridin-8-yl)-N4-(1H-pyrazolo[4,3-b]pyridin-3-yl)benzene-1,4-diamine] | – | 455 | –
32 | Cc1cc(Nc2n[nH]c3cccnc23)ccc1Nc1ncccn1 [Example 130, 2-methyl-N4-(1H-pyrazolo[4,3-b]pyridin-3-yl)-N1-(pyrimidin-2-yl)benzene-1,4-diamine] | – | 235 | –
